Data as given in patent publication US20150321985A1, “(HYDROXYSTILBENE COMPOUND)-(SINAPINIC ACID) REACTION PRODUCT HAVING ANTIFEEDING ACTIVITY” (UHA MIKAKUTO CO., LTD., priority 2012, published 2015).

How the values were obtained:
female mice C57BL/6j = assay: Examination of antifeeding activity: test diets freely fed to mice for 42 days; type: in vivo; conditions: for Total diet intake during test period: C57BL/6j mice
Experimental: To examine the antifeeding activity of UHA1028, 8-week-old female mice C57BL/6j (manufactured by CLEA Japan, Inc.) were used. […] The mice were freely fed for 42 days. During the feeding period of test diets, the diet intake and the weight were measured twice a week.
A required amount of the UHA1028 was obtained by repeating the formation and isolation described in Example 1.
In Table 2, the amount of each component is represented as g per kg of diet.
The test diets fed to the control groups are, a normal diet, a high-fat diet, and a high-fat diet containing resveratrol but containing no test substance respectively.

[1] = test system: agouti-related peptide (AgRP); conditions: reporter assay in cultured cells; cited from earlier work
NPY = conditions: reporter assay in cultured cells; cited from earlier work
[2] = 0.4% test substance in high-fat diet, 42 days

Compound	change in diet intake (FIG. 2) (female mice C57BL/6j; 0.05% UHA1028-containing high-fat diet versus 0.4% resveratrol intake group)	Total diet intake during test period (female mice C57BL/6j; 0.05% test substance in high-fat diet, 42 days) [g]	Total diet intake during test period (female mice C57BL/6j; 0.1% test substance in high-fat diet, 42 days) [g]	Total diet intake during test period (female mice C57BL/6j; 0.2% test substance in high-fat diet, 42 days) [g]	weight increase (FIG. 3) (female mice C57BL/6j; 0.4% UHA1028 in high-fat diet versus 0.4% resveratrol intake group)	Total diet intake during test period (female mice C57BL/6j; [2]) [g]	diet intake versus the other groups (female mice C57BL/6j; UHA1028 intake groups 0.05-0.4% in high-fat diet, Table 3)	anatomy of the mice at the end of the test (organs) (female mice C57BL/6j; four UHA1028 intake groups (0.05-0.4%), 42 days)	antifeeding activity on long-term administration (female mice C57BL/6j; administered for a long period of time, as in the examples)	expression of AgRP [1]	expression of NPY (NPY)
COc1cc(C(C)c2c(O)cc(/C=C/c3ccc(O)cc3)cc2O)cc(OC)c1O (stereo not drawn) [UHA1028]	significantly reduced as compared with the resveratrol intake group	88.4	87.1	99.9	significantly suppressed as compared with the resveratrol intake group	97.5	significantly lower than those of the other groups	no contraction or hypertrophy of organs was observed			
Oc1ccc(C=Cc2cc(O)cc(O)c2)cc1 [Resveratrol, resveratrol, reference compound]						106.7			very low antifeeding activity	suppressed the expression of AgRP and NPY	suppressed the expression of AgRP and NPY
